# Results from BindingDB's records for doi:10.1016/s0960-894x(00)00660-0 (Clinical Research Institute of Montreal, 2001).
# Peptide text beside a SMILES is read from it. * marks the point of attachment. X1 = Cc1cc(O)cc(C)c1C[C@H](C)C(=O)*
# Legend:
# [1] = Tested for binding affinity towards Opioid receptor mu 1 in rat and guinea pig brain membrane binding assays
# [2] = Tested for binding affinity towards Opioid receptor delta 1 in rat and guinea pig brain membrane binding assays
structure (smiles),measurement,setting,value
"Cc1cc(O)cc(C)c1C[C@H](C)C(=O)N[C@@H](C)C(=O)NCC(=O)N[C@@H](Cc1ccccc1)C(=O)N[C@@H](CC(C)C)C(N)=O [(S)-2-[(S)-2-(2-{(S)-2-[(S)-3-(4-Hydroxy-2,6-dimethyl-phenyl)-2-methyl-propionylamino]-propionylamino}-acetylamino)-3-phenyl-propionylamino]-4-methyl-pentanoic acid amide] (X1-AGFL-NH2)",Ki,[1],0.192 µM
same,Ki,[2],0.012 µM
